Data from article PMC12557380, “Optimization of 2,8-Diaryl-1,5-naphthyridines as Plasmodium falciparum Phosphatidylinositol 4‑Kinase Inhibitors with Improved ADME Profiles and In Vivo Efficacy” (Journal of Medicinal Chemistry, 2025).
≈ marks a conversion by molar mass, not a printed value. Read-outs that look alike come from different tables or passages of the source.

How the values were obtained:
[1] = tested on: P. falciparum PI4K cKD line; experiment: microbe, parasite or virus in culture; details: Plasmodium falciparum
in vitro [2] = details: mouse, pH 7.4
[3] = tested on: L6 rat myoblast cell line; experiment: Cytotoxicity, L6; format: cell-based; details: read-out: L6 IC50
physchem [4] = details: n-octanol/phosphate buffer (1:1), pH 7.4
[5] = for in vivo mouse CLb: total body clearance from whole blood, iv 3 mg/kg; for in vivo mouse CLu: unbound blood clearance from CLb and plasma protein binding
physchem [6] = details: 25 °C, pH 6.5, aqueous buffer, thermodynamic from solid
in vivo = details: male, Balb/C, mouse, po, 10 mg/kg
in vitro [7] = details: human, Caco-2
HepG2 cells = experiment: Cytotoxicity, MTT assay, HepG2; format: cell-based
[8] = tested on: Chinese hamster ovary cells; experiment: Cytotoxicity, MTT assay, CHO; format: cell-based; details: Cricetulus griseus, read-out: CHO IC50
[9] = tested on: P. falciparum NF54 (PfNF54) parasites; experiment: In vitro antiplasmodial asexual blood stage activity, pLDH assay, NF54; format: cell-based, Plasmodium falciparum; details: Plasmodium falciparum
in vitro [10] = details: human, pH 7.4
[11] = tested on: P. falciparum K1 (PfK1) strain; experiment: In vitro antiplasmodial asexual blood stage activity, pLDH assay, K1; format: cell-based; details: Plasmodium falciparum
PfDd2 = details: read-out: PfDd2 IC50; reported inhibitors, Figure 1; cited from earlier work
[12] = tested on: panel of the drug-resistant strains of P. falciparum; details: Figure 1, read-out: PfIC50; cited from earlier work
P. vivax PI4Kβ (PvPI4K) = details: cited from earlier work
HsPI4K = details: reported inhibitors, Figure 1; cited from earlier work
HsPI3Kα = HsPI3Kα (Homo sapiens, UniProt P42336); experiment: Human lipid kinase screening, ADP-Glo, PI3Kα; format: biochemical; details: IC50/PvPI4K IC50
Chain of HsPI3Kα (P42336 whole entry): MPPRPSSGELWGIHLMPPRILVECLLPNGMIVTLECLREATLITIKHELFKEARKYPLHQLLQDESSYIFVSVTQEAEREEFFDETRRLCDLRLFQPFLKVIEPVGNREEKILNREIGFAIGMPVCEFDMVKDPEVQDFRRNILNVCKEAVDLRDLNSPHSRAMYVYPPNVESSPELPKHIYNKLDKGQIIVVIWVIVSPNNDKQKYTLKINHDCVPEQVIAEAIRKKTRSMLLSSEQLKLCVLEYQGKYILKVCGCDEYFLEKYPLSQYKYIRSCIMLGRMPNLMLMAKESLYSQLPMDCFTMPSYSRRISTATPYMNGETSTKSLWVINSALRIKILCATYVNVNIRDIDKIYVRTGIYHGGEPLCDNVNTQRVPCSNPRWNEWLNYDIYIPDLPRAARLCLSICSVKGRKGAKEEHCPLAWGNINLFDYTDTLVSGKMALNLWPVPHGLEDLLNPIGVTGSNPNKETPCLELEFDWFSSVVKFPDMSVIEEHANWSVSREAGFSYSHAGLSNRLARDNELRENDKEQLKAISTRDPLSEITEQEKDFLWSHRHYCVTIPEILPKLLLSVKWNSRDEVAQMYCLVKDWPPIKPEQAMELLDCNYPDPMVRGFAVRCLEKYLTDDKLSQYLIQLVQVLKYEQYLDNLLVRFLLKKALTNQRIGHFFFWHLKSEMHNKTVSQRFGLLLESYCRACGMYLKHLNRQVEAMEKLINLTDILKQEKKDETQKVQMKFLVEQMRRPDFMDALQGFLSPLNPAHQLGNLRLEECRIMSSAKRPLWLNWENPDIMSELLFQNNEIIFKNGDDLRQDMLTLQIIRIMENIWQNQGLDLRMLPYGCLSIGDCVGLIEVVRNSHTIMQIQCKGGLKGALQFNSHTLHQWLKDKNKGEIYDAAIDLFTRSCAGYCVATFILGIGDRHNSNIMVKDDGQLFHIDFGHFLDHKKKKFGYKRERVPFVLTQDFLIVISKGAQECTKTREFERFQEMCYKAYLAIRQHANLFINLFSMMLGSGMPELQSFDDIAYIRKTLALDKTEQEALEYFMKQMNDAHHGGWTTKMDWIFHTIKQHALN
Chain of HsPI3Kα (P27986 whole entry partner): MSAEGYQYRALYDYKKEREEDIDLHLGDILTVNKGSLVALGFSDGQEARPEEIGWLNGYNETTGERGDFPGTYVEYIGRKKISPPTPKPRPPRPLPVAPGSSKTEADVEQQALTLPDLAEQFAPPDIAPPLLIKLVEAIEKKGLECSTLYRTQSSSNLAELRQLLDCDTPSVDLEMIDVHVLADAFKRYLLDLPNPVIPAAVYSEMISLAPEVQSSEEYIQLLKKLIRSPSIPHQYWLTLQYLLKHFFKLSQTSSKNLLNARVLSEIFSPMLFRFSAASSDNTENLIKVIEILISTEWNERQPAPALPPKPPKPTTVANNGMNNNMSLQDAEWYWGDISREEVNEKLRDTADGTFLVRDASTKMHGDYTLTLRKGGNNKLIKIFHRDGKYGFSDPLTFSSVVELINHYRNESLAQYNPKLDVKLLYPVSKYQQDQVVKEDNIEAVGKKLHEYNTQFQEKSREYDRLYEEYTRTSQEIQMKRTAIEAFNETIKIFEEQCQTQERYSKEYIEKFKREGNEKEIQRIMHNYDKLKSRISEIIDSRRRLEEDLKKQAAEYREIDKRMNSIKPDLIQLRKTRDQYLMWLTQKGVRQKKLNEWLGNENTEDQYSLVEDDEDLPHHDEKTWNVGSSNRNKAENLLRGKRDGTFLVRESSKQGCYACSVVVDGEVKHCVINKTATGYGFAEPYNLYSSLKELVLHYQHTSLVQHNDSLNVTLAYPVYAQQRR

HsMAP4K4 = HsMAP4K4 (Homo sapiens, UniProt O95819); experiment: Human kinase screening, ADP-Glo, MAP4K4; format: biochemical; details: IC50/PvPI4K IC50
Chain of HsMAP4K4 (O95819 whole entry): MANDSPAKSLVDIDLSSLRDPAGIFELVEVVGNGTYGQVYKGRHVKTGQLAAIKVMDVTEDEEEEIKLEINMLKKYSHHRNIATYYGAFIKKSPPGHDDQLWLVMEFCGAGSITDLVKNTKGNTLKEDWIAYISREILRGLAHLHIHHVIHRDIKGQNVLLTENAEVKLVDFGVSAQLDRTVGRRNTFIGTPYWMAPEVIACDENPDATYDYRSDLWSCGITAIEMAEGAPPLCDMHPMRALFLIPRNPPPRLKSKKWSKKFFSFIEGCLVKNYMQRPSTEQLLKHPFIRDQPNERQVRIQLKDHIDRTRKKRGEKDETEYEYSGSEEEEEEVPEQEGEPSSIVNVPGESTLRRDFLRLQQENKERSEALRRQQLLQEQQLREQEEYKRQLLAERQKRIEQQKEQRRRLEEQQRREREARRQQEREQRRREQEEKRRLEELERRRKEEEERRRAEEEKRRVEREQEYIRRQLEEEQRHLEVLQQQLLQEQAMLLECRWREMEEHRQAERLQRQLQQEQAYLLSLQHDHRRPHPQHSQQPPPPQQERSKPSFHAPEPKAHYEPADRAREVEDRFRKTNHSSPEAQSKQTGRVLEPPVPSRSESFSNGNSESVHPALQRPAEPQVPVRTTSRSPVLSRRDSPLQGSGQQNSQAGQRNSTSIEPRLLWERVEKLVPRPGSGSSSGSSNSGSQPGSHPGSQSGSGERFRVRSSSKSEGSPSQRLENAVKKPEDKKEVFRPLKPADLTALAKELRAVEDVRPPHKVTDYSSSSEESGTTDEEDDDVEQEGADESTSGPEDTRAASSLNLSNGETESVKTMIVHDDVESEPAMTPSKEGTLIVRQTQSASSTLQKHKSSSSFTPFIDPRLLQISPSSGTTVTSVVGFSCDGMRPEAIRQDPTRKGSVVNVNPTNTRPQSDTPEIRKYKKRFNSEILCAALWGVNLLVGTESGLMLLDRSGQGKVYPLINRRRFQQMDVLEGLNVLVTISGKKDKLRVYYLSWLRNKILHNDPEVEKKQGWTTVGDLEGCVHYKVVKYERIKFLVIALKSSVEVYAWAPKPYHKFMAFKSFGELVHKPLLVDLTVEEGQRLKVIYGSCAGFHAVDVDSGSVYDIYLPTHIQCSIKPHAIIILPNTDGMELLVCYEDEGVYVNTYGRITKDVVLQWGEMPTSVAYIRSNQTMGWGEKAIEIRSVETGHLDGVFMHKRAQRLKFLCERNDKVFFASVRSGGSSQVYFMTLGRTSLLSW

HsPI4Kβ = HsPI4Kβ (Homo sapiens, UniProt Q9UBF8); experiment: Human lipid kinase screening, ADP-Glo, PI4Kβ; format: biochemical; details: IC50/PvPI4K IC50
Chain of HsPI4Kβ (Q9UBF8 whole entry): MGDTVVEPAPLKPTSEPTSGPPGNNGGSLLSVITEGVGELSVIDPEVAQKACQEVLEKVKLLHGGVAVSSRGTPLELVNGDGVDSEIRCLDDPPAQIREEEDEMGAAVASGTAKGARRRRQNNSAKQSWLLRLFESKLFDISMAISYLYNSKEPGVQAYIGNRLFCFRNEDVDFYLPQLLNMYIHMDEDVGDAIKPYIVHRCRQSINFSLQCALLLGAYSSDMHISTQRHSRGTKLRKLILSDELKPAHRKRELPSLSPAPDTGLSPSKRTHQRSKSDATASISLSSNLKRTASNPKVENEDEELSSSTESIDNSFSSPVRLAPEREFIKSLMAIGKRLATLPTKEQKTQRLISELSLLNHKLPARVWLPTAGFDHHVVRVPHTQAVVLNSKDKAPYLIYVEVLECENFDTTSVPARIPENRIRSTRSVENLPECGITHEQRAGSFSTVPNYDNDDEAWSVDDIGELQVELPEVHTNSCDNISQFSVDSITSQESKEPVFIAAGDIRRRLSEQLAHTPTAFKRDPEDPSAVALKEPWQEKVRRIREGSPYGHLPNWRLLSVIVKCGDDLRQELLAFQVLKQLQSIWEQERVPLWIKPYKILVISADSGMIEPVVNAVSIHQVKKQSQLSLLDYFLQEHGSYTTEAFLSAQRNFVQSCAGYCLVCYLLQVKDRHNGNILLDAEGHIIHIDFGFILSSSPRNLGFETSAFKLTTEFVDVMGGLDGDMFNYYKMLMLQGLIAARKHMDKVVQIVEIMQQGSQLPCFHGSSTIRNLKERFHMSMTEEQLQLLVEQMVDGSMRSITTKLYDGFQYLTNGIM

HsMINK1 = HsMINK1 (Homo sapiens, UniProt Q8N4C8); experiment: Human kinase screening, ADP-Glo, MINK1; format: biochemical; details: IC50/PvPI4K IC50
Pf3D7 = details: read-out: Pf3D7 IC50; cited from earlier work
PfNF54 = details: cited from earlier work
[13] = tested on: PI4K S743F + H1484Y and PI4K S1320L + L1418F mutant lines; details: 72 h, SYBR green I
[14] = read-out: IC50 Mean + SD, +aTc, mean of N=3, +aTc
[15] = read-out: IC50 Mean + SD, no aTc, mean of N=3, no aTc
[16] = read-out: IC50 for PfPI4K, +aTc, N=1, +aTc
[17] = read-out: IC50 for PfPI4K, +aTc, N=2, +aTc
[18] = read-out: IC50 for PfPI4K, +aTc, N=3, +aTc
[19] = read-out: IC50 for PfPI4K, no aTc, N=1, no aTc (knockdown)
[20] = read-out: IC50 for PfPI4K, no aTc, N=2, no aTc (knockdown)
[21] = read-out: IC50 for PfPI4K, no aTc, N=3, no aTc (knockdown)
[22] = NF54, 72 h, pLDH assay, 72 h, read-out: Pf ABS IC50 NF54
[23] = Homo sapiens, HepG2, read-out: HepG2 IC50
[24] = K1, 72 h, read-out: Pf ABS IC50 K1
[25] = NF54, 72 h, read-out: Pf ABS IC50 NF54
[26] = NF54, mean, supplement, read-out: PfNF54 IC50

Q: Which results are given for `CS(=O)(=O)c1cccc(-c2ccnc3ccc(N4CCC(O)CC4)nc23)c1` [Compound 21, 1-[8-(3-Methylsulfonylphenyl)-1,5-naphthyridin-2-yl]piperidin-4-ol]?
A: IC50 [1, 14]: 84.5 nM; IC50 [1, 15]: 14 nM; IC50 [1, 16]: 131 nM; IC50 [1, 17]: 68.9 nM; IC50 [1, 18]: 53.6 nM; IC50 [1, 19]: 21.7 nM; IC50 [1, 20]: 10.5 nM; IC50 [1, 21]: 9.7 nM; CLint scaled at 1 µM (in vitro [2]; microsomes): < 45.7 mL/min/kg; CLint scaled at 1 µM (in vitro [2]; mouse liver microsomes): < 60.1 mL/min/kg; IC50 [3]: 8000 nM; logD at 3 h (physchem [4]): 2.27; in vivo mouse CLb [5]: 80 mL/min/kg; in vivo mouse CLu [5]: 533 mL/min/kg; solubility thermodynamic at 20 h (physchem [6]; aqueous solution): 150 µM (≈ 57.5 µg/mL); bioavailability (in vivo): 37%; Papp A→B (in vitro [7]): 18 ×10⁻⁶ cm/s; IC50 (HepG2 cells; Homo sapiens, HepG2; read-out: HepG2 IC50): > 50000 nM; IC50 ([8]; one biological replicate): 49000 nM; IC50 [9, 22]: 32 nM; CLint scaled at 1 µM (in vitro [10]; microsomes): < 13.4 mL/min/kg; CLint scaled at 1 µM (in vitro [10]; pooled human liver microsomes): < 17.6 mL/min/kg

Q: What does the source list for `Cn1ccc(-c2ccc3nccc(-c4cccc(S(C)(=O)=O)c4)c3n2)cc1=O` [Compound 19, 1-Methyl-4-[8-(3-methylsulfonylphenyl)-1,5-naphthyridin-2-yl]pyridin-2-one]?
A: IC50 [1, 14]: 36 nM; IC50 [1, 15]: 4.3 nM; IC50 [1, 16]: 48.9 nM; IC50 [1, 17]: 20.2 nM; IC50 [1, 18]: 39.2 nM; IC50 [1, 19]: 5.2 nM; IC50 [1, 20]: 2.5 nM; IC50 [1, 21]: 5.1 nM; CLint scaled at 1 µM (in vitro [2]; microsomes): < 45.7 mL/min/kg; CLint scaled at 1 µM (in vitro [2]; mouse liver microsomes): < 67.2 mL/min/kg; logD at 3 h (physchem [4]): 1.46; in vivo mouse CLb [5]: 102 mL/min/kg; in vivo mouse CLu [5]: 300 mL/min/kg; solubility thermodynamic at 20 h (physchem [6]): 40 µM (≈ 15.7 µg/mL); bioavailability (in vivo): 27%; Papp A→B (in vitro [7]): 14 ×10⁻⁶ cm/s; IC50 ([8]; one biological replicate): 47000 nM; IC50 [9, 22]: 16 nM; CLint scaled at 1 µM (in vitro [10]; microsomes): < 13.4 mL/min/kg; CLint scaled at 1 µM (in vitro [10]; pooled human liver microsomes): < 19.7 mL/min/kg

Q: For `CNC(=O)Cc1cccc(-c2ccc3nccc(-c4ccc(C(C)(C)O)nc4)c3n2)c1` [Compound 27, 2-[3-[8-[6-(2-Hydroxypropan-2-yl)pyridin-3-yl]-1,5-naphthyridin-2-yl]phenyl]-N-methylacetamide], which IC50 [3] is on record?
A: 38000 nM

Q: And the IC50 (HepG2 cells; [23])?
A: 6000 nM

Q: What about the IC50 [11, 24] of the same molecule?
A: 81 nM

Q: And the IC50 ([11]; K1, read-out: PfK1 IC50)?
A: 81.2 nM

Q: And the IC50 [8]?
A: 31000 nM

Q: What about the IC50 [9, 25] of the same molecule?
A: 51 nM

Q: What about the IC50 ([9]; NF54, read-out: PfNF54 IC50) of the same molecule?
A: 50.7 nM

Q: What about the IC50 ([9]; NF54, read-out: free IC50) of the same molecule?
A: 40 nM

Q: Which IC50 (PfDd2) does the source give for `COc1ccc2c3c([nH]c2c1)[C@H](CO)N(C(C)=O)CC31CCN(C(=O)Nc2ccccc2F)CC1` [BRD73842] here?
A: 69 nM

Q: With `CNC(=O)c1cncc(-c2cnc(Cl)c(NS(=O)(=O)c3ccccc3)c2)c1` [CHMFL-PI4K-127, 6′-Chloro-N-Methyl-5′-(Phenylsulfonamido)-[3,3′-Bipyridine]-5-Carboxamide] as the molecule, how does the IC50 [12] read?
A: 24 to 47 nM

Q: And the IC50 (P. vivax PI4Kβ (PvPI4K); reported inhibitors, Figure 1)?
A: 0.9 nM

Q: What about the IC50 (HsPI4K) of the same molecule?
A: 430 nM

Q: For `CS(=O)(=O)c1cccc(-c2ccnc3ccc(N4CCCC(C(N)=O)C4)nc23)c1` (centres unmarked) [Compound 22, 1-[8-(3-Methylsulfonylphenyl)-1,5-naphthyridin-2-yl]piperidine-3-carboxamide], which “HsPI3Kα SI” value (HsPI3Kα) is on record?
A: 60

Q: What about the solubility thermodynamic at 20 h (physchem [6]) of the same molecule?
A: 10 µM (≈ 4.1 µg/mL)

Q: And the IC50 ([8]; one biological replicate)?
A: > 50000 nM

Q: What about the “HsMAP4K4 SI” value (HsMAP4K4) of the same molecule?
A: > 4000

Q: And the “HsPI4Kβ SI” value (HsPI4Kβ)?
A: 56

Q: What about the “HsMINK1 SI” value (HsMINK1) of the same molecule?
A: > 4000

Q: And the IC50 [9, 22]?
A: 67 nM

Q: What about the IC50 [9, 26] of the same molecule?
A: 67.2 nM

Q: What does the source list for `NS(=O)(=O)c1cccc(-c2ccc3nccc(-c4ccnc(C(F)(F)F)c4)c3n2)c1` [Compound 1]?
A: IC50 (Pf3D7): 140 nM; IC50 [3]: 35000 nM; IC50 (P. vivax PI4Kβ (PvPI4K)): 6 nM; IC50 (HepG2 cells; [23]): 48000 nM; IC50 [11, 24]: 86 nM; IC50 [8]: 6000 nM; IC50 (PfNF54): 63 nM; IC50 [9, 25]: 63 nM

Q: For `CS(=O)(=O)c1cccc(-c2ccc3nccc(-c4ccc(C(=O)N5CCC(O)C5)cc4)c3n2)c1` (centres unmarked) [Compound 37, (3-Hydroxypyrrolidin-1-yl)-[4-[6-(3-methylsulfonylphenyl)-1,5-naphthyridin-4-yl]phenyl]methanone], which CLint scaled at 1 µM (in vitro [2]; microsomes) is on record?
A: < 45.7 mL/min/kg

Q: And the CLint scaled at 1 µM (in vitro [2]; mouse liver microsomes)?
A: < 93.2 mL/min/kg

Q: What about the logD at 3 h (physchem [4]) of the same molecule?
A: 1.92

Q: And the “in vivo mouse CLb” value [5]?
A: 181 mL/min/kg

Q: And the “in vivo mouse CLu” value [5]?
A: 362 mL/min/kg

Q: And the solubility thermodynamic at 20 h (physchem [6]; aqueous solution)?
A: 60 µM (≈ 28.4 µg/mL)

Q: And the “IC50 shift against PI4K mutant lines relative to parent Dd2” value [13]?
A: showed IC50 shifts

Q: What about the bioavailability (in vivo) of the same molecule?
A: 11%

Q: And the Papp A→B (in vitro [7])?
A: 1.5 ×10⁻⁶ cm/s

Q: What about the efflux ratio (in vitro [7]) of the same molecule?
A: 32

Q: And the IC50 ([11]; K1, pLDH assay, 72 h, read-out: Pf ABS IC50 K1)?
A: 96 nM

Q: And the IC50 ([8]; one biological replicate)?
A: 24000 nM

Q: And the IC50 [9, 22]?
A: 32 nM

Q: And the IC50 [9, 26]?
A: 32.2 nM

Q: And the CLint scaled at 1 µM (in vitro [10]; microsomes)?
A: < 13.4 mL/min/kg

Q: And the CLint scaled at 1 µM (in vitro [10]; pooled human liver microsomes)?
A: < 27.3 mL/min/kg

Q: For `CNC(=O)c1ccc(-c2cnc3cnc(C(=O)N(C)c4ccc(Cl)cc4)cn23)cc1` [KDU691], which IC50 [12] is on record?
A: 27 to 70 nM

Q: And the IC50 (P. vivax PI4Kβ (PvPI4K))?
A: 1.6 nM

Q: What about the IC50 (HsPI4K) of the same molecule?
A: 7900 nM
